Values of other authors as cited in patent US9493497B2, “Carbamate glycolipid and use thereof” (RIKEN, priority 2012, dated 2016).

Columns and labels:
[1] = system: NKT cells
[2] = system: NKT cells of mouse
[3] = system: human NKT cells
[4] = not given; remark: listed apart in the source
[5] = system: tumor

CCCCCCCCCCCCCCCCCCCCCCCCCC(=O)N[C@@H](CO[C@H]1CC(CO)[C@H](O)[C@H](O)C1O)[C@H](O)[C@H](O)CCCCCCCCCCCCCC (stereo partly shown) [RCAI-56]
NKT cell activation / IFN-γ production induction [1]: strongly activates NKT cells and induces production of a large amount of IFN-γ

CCCCCCCCCCCCCCCCCCCCCCCCCC(=O)N[C@@H](CC[C@H]1OC(CO)[C@H](O)C(O)C1O)[C@H](O)[C@H](O)CCCCCCCCCCCCCC (stereo partly drawn) [α-C-GalCer]
activation of NKT cells of mouse [2]: strongly activates NKT cells of mouse and preferentially produces IFN-γ | cytokine production in human NKT cells [3]: scarcely induces cytokine production

CCCCCCCCCCCCCCCCCCCCCCCCCC(=O)N[C@@H](CO[C@H]1O[C@H](COC)[C@H](O)[C@H](O)[C@H]1O)[C@H](O)[C@H](O)CCCCCCCCCCCCCC [RCAI-61]
NKT cell activation / IFN-γ production induction [1]: induces production of IFN-γ in large amounts | solubility in water: low solubility in water

CCCCCCCC/C=C\CCCCCCCCCCCCCC(=O)N[C@@H](CO[C@H]1OC(CNC(C)=O)[C@H](O)[C@H](O)C1O)[C@H](O)[C@H](O)CCCCCCCCCCCCCC (stereo partly shown) [PBS-57]
solubility in DMSO [4]: improved solubility in DMSO

CCCCCCCCCCCCCCCCCCCCCCCCCC(=O)N[C@@H](CO[C@H]1OC(CO)[C@H](O)C(O)C1O)[C@H](O)[C@H](O)CCCCCCCCCCCCCC (stereo partly shown) [KRN7000]
anti-tumor activity [5]: extremely strong anti-tumor activity
